Experimental data taken from BindingDB's records for patent US10556885 (Samumed, 2020).

Assays:
[1] = target: Dual specificity tyrosine-phosphorylation-regulated kinase 1A (Homo sapiens, UniProt Q13627); assay: Z-lyte Assay
Description: All reactions were performed in duplicate.

[2] = target: Glycogen synthase kinase-3 beta (Homo sapiens, UniProt P49841); assay: Z-lyte Assay
Sequence of Glycogen synthase kinase-3 beta (P49841 whole entry): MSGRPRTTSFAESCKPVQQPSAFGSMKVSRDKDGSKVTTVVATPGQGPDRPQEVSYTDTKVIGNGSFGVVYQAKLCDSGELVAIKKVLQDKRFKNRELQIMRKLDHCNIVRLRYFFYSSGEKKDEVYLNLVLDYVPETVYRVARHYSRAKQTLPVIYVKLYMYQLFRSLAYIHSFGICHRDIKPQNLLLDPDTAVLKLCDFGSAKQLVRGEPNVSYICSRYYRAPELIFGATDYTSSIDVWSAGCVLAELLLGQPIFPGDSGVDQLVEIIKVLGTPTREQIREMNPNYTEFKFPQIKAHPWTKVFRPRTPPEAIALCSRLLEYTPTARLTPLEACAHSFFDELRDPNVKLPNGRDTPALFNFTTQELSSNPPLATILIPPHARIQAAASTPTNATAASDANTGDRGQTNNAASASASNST

Cc1ncc(-c2ccc3cnc(NC(=O)C4CCC(F)(F)CC4)cc3c2)[nH]1 [US10556885, Compound 121]
EC50 [1]: 3.4 nM
EC50 [2]: 53 nM
